Data reported in patent US8507509B2, “Saturated and insaturated bi- or tricyclic aryloxyacetamine derivatives and their use as fungicides” (Syngenta Crop Protection LLC, priority 2007, dated 2013).

Experiments:
Plasmopara viticola = Plasmopara viticola (downy mildew of grapevine), grapevine leaf disk assay, preventive; assay type: in vivo; details: foliar, 168 h, 200 ppm, grapevine leaf disks, assessed seven days after inoculation, read-out: control of fungal infection, Plasmopara viticola
Phytophthora infestans = assay: whole plant or invertebrate; assay type: in vivo; details: in Solanum lycopersicum, foliar, 96 h, read-out: control of fungal infection, Phytophthora infestans
[1] = system: Erysiphe graminis f.sp. tritici; assay: Erysiphe graminis f.sp. tritici (wheat powdery mildew), wheat leaf segment assay, preventive; assay type: in vivo; details: Blumeria graminis, foliar, 96 h; 200 ppm; wheat leaf segments; assessed four days after inoculation; read-out: control of fungal infection, Etysiphe graminis f.sp. tritici
Botrytis cinerea = Botrytis cinerea (grey mould), bean leaf disk assay, preventive; assay type: in vivo; details: foliar, 96 h, 200 ppm, bean leaf disks, assessed four days after inoculation, read-out: control of fungal infection, Botrytis cinerea
Septoria tritici = Septoria tritici (leaf blotch), liquid culture growth inhibition in nutrient broth; assay type: cell-based; details: Zymoseptoria tritici; 200 ppm; PDB broth, 24 C; inhibition of growth determined photometrically after 72 hrs; read-out: control of fungal infection, Septoria tritici
Pythium ultimum = Pythium ultimum (Damping off), liquid culture growth inhibition in potato dextrose broth; assay type: cell-based; details: Globisporangium ultimum; 20 ppm; potato dextrose broth, 24° C.; inhibition of growth determined photometrically after 48 hours; read-out: control of fungal infection, Pythium ultimum
[2] = system: Puccinia recondita f.sp. tritici; assay: Puccinia recondita f.sp. tritici (wheat brown rust), wheat leaf segment assay, preventive; assay type: in vivo; details: foliar, 216 h, 200 ppm, wheat leaf segments, assessed nine days after inoculation, read-out: control of fungal infection, Puccinia recondite f.sp. tritici
Septoria nodorum = Septoria nodorum (wheat glume blotch), wheat leaf segment assay, preventive; assay type: in vivo; details: Parastagonospora nodorum, foliar, 96 h; 200 ppm; wheat leaf segments; assessed four days after inoculation; read-out: control of fungal infection, Septoria nodorum
Fusarium culmorum = Fusarium culmorum (root rot), liquid culture growth inhibition in nutrient broth; assay type: cell-based; details: PDB broth, 24 C, inhibition of growth determined photometrically after 48 hrs, read-out: control of fungal infection, Fusarium culmorum
Experimental: Mycelia fragments or conidia suspensions of a fungus, prepared either freshly from liquid cultures of the fungus or from cryogenic storage, are directly mixed into nutrient broth. DMSO solutions of the test compound (max. 10 mg/ml) is diluted with 0.025% Tween20 by factor 50 and 10 μl of this solution is pipetted into a microtiter plate (96-well format) and the nutrient broth containing the fungal spores/mycelia fragments is then added to give an end concentration of the tested compound. The test plates are incubated at 24° C. and 96% rH in the dark. The inhibition of fungal growth is determined photometrically after 2-6 days and antifungal activity is calculated.
Fusarium culmorum (root rot): Conidia of the fungus from cryogenic storage were directly mixed into nutrient broth (PDB potato dextrose broth). After placing a (DMSO) solution of the test compounds into a microtiter plate (96-well format) the nutrient broth containing the fungal spores was added. The test plates were incubated at 24 C and the inhibition of growth was determined photometrically after 48 hrs.

CON=CC(C)(C)NC(=O)C(OC)Oc1ccc2ncc(C#C[Si](C)(C)C)cc2c1 (stereo not drawn) [Compound No. 74, 2-Methoxy-N-(2-methoxyimino-1,1-dimethyl-ethyl)-2-(3-trimethylsilanylethynyl-quinolin-6-yloxy)-acetamide]
≥ 60%: pest or weed control at 200 ppm (Plasmopara viticola) | pest or weed control at 200 ppm (Phytophthora infestans) | pest or weed control at 200 ppm [1] | pest or weed control at 200 ppm (Botrytis cinerea) | inhibition of growth at 200 ppm (Septoria tritici) | inhibition of growth at 20 ppm (Pythium ultimum)

CCC(Oc1ccc2ncc(I)cc2c1)C(=O)NC(C)(C)C=NOCCF (stereo not drawn) [Compound No. 155, N-[2-(2-Fluoro-ethoxyimino)-1,1-dimethyl-ethyl]-2-(3-iodo-quinolin-6-yloxy)-butyramide]
≥ 60%: pest or weed control at 200 ppm (Plasmopara viticola) | pest or weed control at 200 ppm (Phytophthora infestans) | pest or weed control at 200 ppm [1] | pest or weed control at 200 ppm [2] | pest or weed control at 200 ppm (Septoria nodorum) | inhibition of growth at 200 ppm (Septoria tritici) | inhibition of growth at 200 ppm (Fusarium culmorum)

CON=CC(C)(C)NC(=O)C(Oc1cc(C)c2ncsc2c1)SC (stereo not drawn) [Compound No. 89, N-(2-Methoxyimino-1,1-dimethyl-ethyl)-2-(4-methyl-benzothiazol-6-yloxy)-2-methylsulfanyl-acetamide]
≥ 60%: pest or weed control at 200 ppm (Plasmopara viticola) | pest or weed control at 200 ppm (Phytophthora infestans) | pest or weed control at 200 ppm [1] | pest or weed control at 200 ppm (Botrytis cinerea) | inhibition of growth at 200 ppm (Septoria tritici)

CC#CCON=CC(C)(C)NC(=O)C(Oc1ccc2ncc(Br)cc2c1)SC (stereo not drawn) [Compound No. 141, 2-(3-Bromo-quinolin-6-yloxy)-N-(2-but-2-ynyloxyimino-1,1-dimethyl-ethyl)-2-methylsulfanyl-acetamide]
≥ 60%: pest or weed control at 200 ppm (Plasmopara viticola) | pest or weed control at 200 ppm (Phytophthora infestans) | pest or weed control at 200 ppm [1] | pest or weed control at 200 ppm [2] | inhibition of growth at 200 ppm (Septoria tritici) | inhibition of growth at 200 ppm (Fusarium culmorum) | inhibition of growth at 20 ppm (Pythium ultimum)

CON=CCNC(=O)C(Oc1ccc2ncc(Br)cc2c1)SC (stereo not drawn) [Compound No. 93, 2-(3-Bromo-quinolin-6-yloxy)-N-(2-methoxyimino-ethyl)-2-methylsulfanyl-acetamide]
≥ 60%: pest or weed control at 200 ppm (Plasmopara viticola) | pest or weed control at 200 ppm (Phytophthora infestans) | pest or weed control at 200 ppm [1] | pest or weed control at 200 ppm [2] | pest or weed control at 200 ppm (Septoria nodorum) | inhibition of growth at 200 ppm (Septoria tritici) | inhibition of growth at 200 ppm (Fusarium culmorum)

C#Cc1cnc2c(C)cc(OC(CC)C(=O)NC(C)(C)C=NOCC=C)cc2c1 (stereo not drawn) [Compound No. 138, N-(2-Allyloxyimino-1,1-dimethyl-ethyl)-2-(3-ethynyl-8-methyl-quinolin-6-yloxy)-butyramide]
≥ 60%: pest or weed control at 200 ppm (Plasmopara viticola) | pest or weed control at 200 ppm (Phytophthora infestans) | pest or weed control at 200 ppm [1] | pest or weed control at 200 ppm [2] | pest or weed control at 200 ppm (Septoria nodorum) | inhibition of growth at 200 ppm (Septoria tritici) | inhibition of growth at 20 ppm (Pythium ultimum)

CCC(Oc1cc(C)c2ncc(I)cc2c1)C(=O)NC(C)(C)C=NOC (stereo not drawn) [Compound No. 5, 2-(3-Iodo-8-methyl-quinolin-6-yloxy)-N-(2-methoxyimino-1,1-dimethyl-ethyl)-butyramide]
≥ 60%: pest or weed control at 200 ppm (Plasmopara viticola) | pest or weed control at 200 ppm (Phytophthora infestans) | pest or weed control at 200 ppm [1] | pest or weed control at 200 ppm [2] | pest or weed control at 200 ppm (Septoria nodorum) | inhibition of growth at 200 ppm (Septoria tritici)

CSC(Oc1cc(C)c2ncc(I)cc2c1)C(=O)NC(C)(C)CC=NOC1CCCCO1 (stereo not drawn) [Compound No. 96, N-[1,1-Dimethyl-3-(tetrahydro-pyran-2-yloxyimino)-propyl]-2-(3-iodo-8-methyl-quinolin-6-yloxy)-2-methylsulfanyl-acetamide]
≥ 60%: pest or weed control at 200 ppm (Plasmopara viticola) | pest or weed control at 200 ppm (Botrytis cinerea) | inhibition of growth at 200 ppm (Septoria tritici) | inhibition of growth at 20 ppm (Pythium ultimum)

CON=CC(C)(C)NC(=O)C(OC)Oc1cc(C)c2ncc(C#C[Si](C)(C)C)cc2c1 (stereo not drawn) [Compound No. 75, 2-Methoxy-N-(2-methoxyimino-1,1-dimethyl-ethyl)-2-(8-methyl-3-trimethylsilanylethynyl-quinolin-6-yloxy)-acetamide]
≥ 60%: pest or weed control at 200 ppm (Plasmopara viticola) | pest or weed control at 200 ppm (Phytophthora infestans) | pest or weed control at 200 ppm [1] | pest or weed control at 200 ppm (Botrytis cinerea) | pest or weed control at 200 ppm (Septoria nodorum)

CCC(Oc1ccc2ncc(I)cc2c1)C(=O)NC(C)(C=NOC)COC (stereo not drawn) [Compound No. 68, 2-(3-Iodo-quinolin-6-yloxy)-N-(2-methoxyimino-1-methoxymethyl-1-methyl-ethyl]-butyramide]
≥ 60%: pest or weed control at 200 ppm (Plasmopara viticola) | pest or weed control at 200 ppm (Phytophthora infestans) | pest or weed control at 200 ppm [1] | pest or weed control at 200 ppm (Botrytis cinerea) | pest or weed control at 200 ppm (Septoria nodorum) | inhibition of growth at 200 ppm (Septoria tritici)

C=CCON=CC(C)(C)NC(=O)C(Oc1ccc2ncc(Br)cc2c1)SC (stereo not drawn) [Compound No. 13, N-(2-Allyloxyimino-1,1-dimethyl-ethyl)-2-(3-bromo-quinolin-6-yloxy)-2-methylsulfanyl-acetamide]
≥ 60%: pest or weed control at 200 ppm (Plasmopara viticola) | pest or weed control at 200 ppm (Phytophthora infestans) | pest or weed control at 200 ppm [1] | pest or weed control at 200 ppm (Botrytis cinerea) | inhibition of growth at 200 ppm (Septoria tritici) | inhibition of growth at 20 ppm (Pythium ultimum)

CSC(Oc1ccc2ncc(Br)cc2c1)C(=O)NC(C)(C)C=NOCCF (stereo not drawn) [Compound No. 142, 2-(3-Bromo-quinolin-6-yloxy)-N-[2-(2-fluoro-ethoxyimino)-1,1-dimethyl-ethyl]-2-methylsulfanyl-acetamide]
≥ 60%: pest or weed control at 200 ppm (Plasmopara viticola) | pest or weed control at 200 ppm (Phytophthora infestans) | pest or weed control at 200 ppm [1] | pest or weed control at 200 ppm [2] | inhibition of growth at 200 ppm (Septoria tritici) | inhibition of growth at 200 ppm (Fusarium culmorum) | inhibition of growth at 20 ppm (Pythium ultimum)

CCC(Oc1cc(C)c2ncc(Br)cc2c1)C(=O)NC(C)(C)C=NOC (stereo not drawn) [Compound No. 145, 2-(3-Bromo-8-methyl-quinolin-6-yloxy)-N-(2-methoxyimino-1,1-dimethyl-ethyl)-butyramide]
≥ 60%: pest or weed control at 200 ppm (Plasmopara viticola) | pest or weed control at 200 ppm (Phytophthora infestans) | pest or weed control at 200 ppm [1] | pest or weed control at 200 ppm (Botrytis cinerea) | pest or weed control at 200 ppm (Septoria nodorum) | inhibition of growth at 200 ppm (Septoria tritici)

CCC(Oc1ccc2ncc(Br)cc2c1)C(=O)NC(C)(C)C=NOC (stereo not drawn) [Compound No. 144, 2-(3-Bromo-quinolin-6-yloxy)-N-(2-methoxyimino-1,1-dimethyl-ethyl)-butyramide]
≥ 60%: pest or weed control at 200 ppm (Plasmopara viticola) | pest or weed control at 200 ppm (Phytophthora infestans) | pest or weed control at 200 ppm [1] | pest or weed control at 200 ppm [2] | inhibition of growth at 200 ppm (Septoria tritici) | inhibition of growth at 200 ppm (Fusarium culmorum)

CO/N=C(\C)C(C)(C)NC(=O)C(Oc1cc(C)c2ncc(Br)cc2c1)SC (stereo not drawn) [Compound No. 32, 2-(3-Bromo-8-methyl-quinolin-6-yloxy)-N-{2-[(E)-methoxyimino]-1,1-dimethyl-propyl}-2-methylsulfanyl-acetamide]
≥ 60%: pest or weed control at 200 ppm (Plasmopara viticola) | pest or weed control at 200 ppm (Phytophthora infestans) | pest or weed control at 200 ppm [1] | pest or weed control at 200 ppm [2] | inhibition of growth at 200 ppm (Fusarium culmorum) | inhibition of growth at 20 ppm (Pythium ultimum)

CON=CC(C)(C)NC(=O)C(Oc1cc(C)c2scnc2c1)SC (stereo not drawn) [Compound No. 87, N-(2-methoxyimino-1,1-dimethyl-ethyl)-2-(7-methyl-benzothiazol-5-yloxy)-2-methylsulfanyl-acetamide]
≥ 60%: pest or weed control at 200 ppm (Botrytis cinerea) | inhibition of growth at 20 ppm (Pythium ultimum)
